The results in this text go back to US8501746B2, “Organic compounds” (Xenon Pharmaceuticals Inc., priority 2006, dated 2013).

One may read the melting point as the temperature of the solid-liquid transition. As for `Cc1nc(-n2ccc(O)cc2=O)sc1C(=O)NCc1cccc(F)c1` [Example 1.15, N-(3-Fluorobenzyl)-2-(4-hydroxy-2-oxopyridin-1(2H)-yl)-4-methylthiazole-5-carboxamide], the melting point lay within 250 to 252 °C.

Consider `Cc1nc(-n2ccc(C(F)(F)F)cc2=O)sc1C(=O)NCc1cccnc1` [Example 3.24, 4-Methyl-2-(2-oxo-4-(trifluoromethyl)pyridin-1(2H)-yl)-N-(pyridin-3-ylmethyl)thiazole-5-carboxamide], for which the melting point was 172 to 173 °C.

Regarding `Cc1cc(-n2ccc(O)cc2=O)sc1C(=O)NCc1cccc(F)c1` [Example 7.8, N-(3-Fluorobenzyl)-5-(4-hydroxy-2-oxopyridin-1(2H)-yl)-3-methylthiophene-2-carboxamide], the melting point was 140 to 142 °C.

On to `Cc1nc(-n2ccc(OCCC3CC3)cc2=O)sc1C(=O)NCc1ccccc1` [Example 1.3, N-Benzyl-2-(4-(2-cyclopropylethoxy)-2-oxopyridin-1(2H)-yl)-4-methylthiazole-5-carboxamide], for which the melting point lay within 172 to 174 °C.

For the compound `Cc1cc(-n2ccc(OCC3CC3)cc2=O)sc1C(=O)NCc1ccccc1` [Example 9.5, N-Benzyl-5-(4-(cyclopropylmethoxy)-2-oxopyridin-1(2H)-yl)-3-methylthiophene-2-carboxamide], the melting point lay in the range of 175 to 177 °C.

In the case of `Cc1cc(-n2ccc(CCc3ccccc3)cc2=O)sc1C(=O)NCc1ccccc1` [Example 24, N-benzyl-3-methyl-5-(2-oxo-4-phenethylpyridine-1(2H)-yl)thiophene-2-carboxamide], the melting point is 145 to 146 °C.

`COc1ccn(-c2nc(C)c(C(=O)NCc3ccc[n+]([O-])c3)s2)c(=O)c1` [Example 27, 3-((2-(4-methoxy-2-oxopyridin-1(2H)-yl)-4-methylthiazole-5-carboxamido)methyl)pyridine 1-oxide] yielded a melting point of 255 to 257 °C.

The compound `Cc1nc(-n2ccc(CCc3ccccc3)cc2=O)sc1C(=O)NCc1ccccc1` [Example 19, N-benzyl-4-methyl-2-(2-oxo-4-phenethylpyridine-1(2H)-yl)thiazole-5-carboxamide] showed a melting point of 149 to 150 °C.

`Cc1nc(-n2cccc(OCc3ccccc3)c2=O)sc1C(=O)NCc1ccccc1` [Example 3.7, N-Benzyl-2-(3-(benzyloxy)-2-oxopyridin-1(2H)-yl)-4-methylthiazole-5-carboxamide] registered a melting point of 198 to 201 °C.

On to `Cc1nc(-n2ccc(C3CC3)cc2=O)sc1C(=O)NCc1ccccc1` [Example 19.1, N-Benzyl-2-(4-cyclopropyl-2-oxopyridin-1(2H)-yl)-4-methylthiazole-5-carboxamide], for which the melting point was in the range of 149 to 151 °C.

In turn, `Cc1nc(-n2ccc(OCc3ccc(C(F)(F)F)o3)cc2=O)sc1C(=O)O` [Example 13.6] yielded a melting point of 261 to 263 °C.

For `Cc1nc(-n2c(=O)ccc3cc(OCc4ccccc4)ccc32)sc1C(=O)NCc1ccccc1` [Example 3.9, N-Benzyl-2-(6-(benzyloxy)-2-oxoquinolin-1(2H)-yl)-4-methylthiazole-5-carboxamide], the melting point fell in the range of 213 to 216 °C.

Regarding `Cc1nc(-n2ccccc2=O)sc1C(=O)NCc1cccnc1` [Example 3.16, 4-Methyl-2-(2-oxopyridin-1(2H)-yl)-N-(pyridin-3-ylmethyl)thiazole-5-carboxamide], the melting point was 218 to 220 °C.

`Cc1nc(-n2ccc(OCc3ccccc3)cc2=O)[nH]c1C(=O)NCc1cccnc1` [Example 1.8, 2-(4-(Benzyloxy)-2-oxopyridin-1(2H)-yl)-4-methyl-N-(pyridin-3-ylmethyl)-1H-imidazole-5-carboxamide] came in with a melting point of 203 to 204 °C.

For `Cc1nc(-n2ccc(Oc3ccccc3)cc2=O)sc1C(=O)NCc1ccccc1` [Example 18, N-Benzyl-4-methyl-2-(2-oxo-4-phenoxypyridin-1(2H)-yl)thiazole-5-carboxamide], the melting point fell in the range of 67 to 70 °C.

`Cc1c(C(=O)NCc2ccccc2)nc(-n2ccc(OCc3ccccc3)cc2=O)n1C` [Example 1.10, N-Benzyl-2-(4-(benzyloxy)-2-oxopyridin-1(2H)-yl)-1,5-dimethyl-1H-imidazole-4-carboxamide] had a melting point of 190 to 191 °C.

For `Cc1nc(-n2ccc(-c3ccccc3)cc2=O)sc1C(=O)NCc1ccccc1` [Example 1, N-benzyl-4-methyl-2-(2-oxo-4-phenylpyridin-1(2H)-yl)thiazole-5-carboxamide], the melting point fell in the range of 235 to 237 °C.

As for `Cc1cc(-n2ccc(OCc3ccc(OC(F)F)cc3)cc2=O)sc1C(=O)NCc1ccccc1` [Example 9.3, N-Benzyl-5-(4-(4-(difluoromethoxy)benzyloxy)-2-oxopyridin-1(2H)-yl)-3-methylthiophene-2-carboxamide], the melting point lay in the range of 178 to 180 °C.

With `Cc1nc(-n2ccc(C(F)(F)F)cc2=O)sc1C(=O)NCc1ccccc1` [Example 3.6, N-Benzyl-4-methyl-2-(2-oxo-4-(trifluoromethyl)pyridin-1(2H)-yl)thiazole-5-carboxamide], the melting point lay within 197 to 198 °C.

`Cc1nc(-n2ccc(N3CCNC3=O)cc2=O)sc1C(=O)NCc1ccccc1` [Example 26, N-Benzyl-4-methyl-2-(2-oxo-4-(2-oxoimidazolidin-1-yl)pyridin-1(2H)-yl)thiazole-5-carboxamide] returned a melting point of more than 300 °C.

For the compound `CCOC(=O)c1sc(-n2ccc(OCCC3CC3)cc2=O)nc1C` [Example 15.2, Ethyl 2-(4-(2-Cyclopropylethoxy)-2-oxopyridin-1(2H)-yl)-4-methylthiazole-5-carboxylate], the melting point lay within 188 to 190 °C.

Consider `CCOC(=O)c1[nH]c(-n2ccc(OCc3ccccc3)cc2=O)nc1C` [Example 12.2, Ethyl 2-(4-(benzyloxy)-2-oxopyridin-1(2H)-yl)-4-methyl-1H-imidazole-5-carboxylate], for which the melting point fell in the range of 135 to 136 °C.

Compound `Cc1nc(-n2ccc(OCc3ccccn3)cc2=O)sc1C(=O)NCc1ccccc1` [Example 6.1, N-Benzyl-4-methyl-2-(2-oxo-4-(pyridin-2-ylmethoxy)pyridin-1(2H)-yl)thiazole-5-carboxamide] had a melting point of 202 to 205 °C.

`Cc1cc(-n2ccc(OCc3ccccc3)cc2=O)sc1C(=O)NCc1cccc(F)c1` [Example 3.22, 5-(4-(Benzyloxy)-2-oxopyridin-1(2H)-yl)-N-(3-fluorobenzyl)-3-methylthiophene-2-carboxamide] came in with a melting point of 140 to 141 °C.

Compound `Cc1nc(-n2ccc(O)cc2=O)sc1C(=O)NCC1CC1` [Example 1.16, N-(Cyclopropylmethyl)-2-(4-hydroxy-2-oxopyridin-1(2H)-yl)-4-methylthiazole-5-carboxamide] had a melting point of 240 to 242 °C.

Consider `Cc1nc(-n2ccc(OCCC3CC3)cc2=O)sc1C(=O)NCc1ccc(F)cc1` [Example 1.4, 2-(4-(2-Cyclopropylethoxy)-2-oxopyridin-1(2H)-yl)-N-(4-fluorobenzyl)-4-methylthiazole-5-carboxamide], for which the melting point was in the range of 172 to 174 °C.

With `Cc1cc(-n2ccc(OCc3ccc(C(F)(F)F)cc3)cc2=O)sc1C(=O)NCc1ccccc1` [Example 9.1, N-Benzyl-3-methyl-5-(2-oxo-4-(4-(trifluoromethyl)benzyloxy)pyridin-1(2H)-yl)thiophene-2-carboxamide], the melting point was in the range of 225 to 227 °C.

On to `Cc1nc(-n2ccc(O)cc2=O)sc1C(=O)NCc1ccc(F)c(F)c1` [Example 1.19, N-(3,4-Difluorobenzyl)-2-(4-hydroxy-2-oxopyridin-1(2H)-yl)-4-methylthiazole-5-carboxamide], for which the melting point was 294 to 296 °C.

For `Cc1nc(-n2ccc(C(=O)Nc3ccccc3)cc2=O)sc1C(=O)NCc1ccccc1` [Example 3.13, N-Benzyl-4-methyl-2-(2-oxo-4-(phenylcarbamoyl)pyridin-1(2H)-yl)thiazole-5-carboxamide], the melting point lay in the range of 243 to 245 °C.

Compound `Cc1nc(-n2ccc(OCc3ccccc3)cc2=O)sc1C(=O)NCc1ccc(F)cc1` [Example 3.12, 2-(4-(Benzyloxy)-2-oxopyridin-1(2H)-yl)-N-(4-fluorobenzyl)-4-methylthiazole-5-carboxamide] registered a melting point of 223 to 225 °C.

With `O=C(NCc1ccccc1)c1csc(-n2ccc(O)cc2=O)c1` [Example 7.3, N-Benzyl-5-(4-hydroxy-2-oxopyridin-1(2H)-yl)thiophene-3-carboxamide], the melting point is 150 °C (dec.).

For the compound `Cc1nc(-n2cccc(O)c2=O)sc1C(=O)NCc1ccccc1` [Example 7, N-Benzyl-2-(3-hydroxy-2-oxopyridin-1(2H)-yl)-4-methylthiazole-5-carboxamide], the melting point was in the range of 225 to 228 °C.

On to `Cc1nc(-n2ccc(OCc3ccc(OC(F)F)cc3)cc2=O)sc1C(=O)NCc1ccc(F)cc1` [Example 9.9, 2-(4-(4-(Difluoromethoxy)benzyloxy)-2-oxopyridin-1(2H)-yl)-N-(4-fluorobenzyl)-4-methylthiazole-5-carboxamide], for which the melting point was 242 to 244 °C.

With `Cc1cc(-n2ccc(O)cc2=O)sc1C(=O)NCc1ccc(F)cc1` [Example 7.7, N-(4-Fluorobenzyl)-5-(4-hydroxy-2-oxopyridin-1(2H)-yl)-3-methylthiophene-2-carboxamide], the melting point is 95 °C (dec.).

`Cc1nc(-n2ccc(O)cc2=O)sc1C(=O)NCc1ccncc1` [Example 1.20, 2-(4-Hydroxy-2-oxopyridin-1(2H)-yl)-4-methyl-N-(pyridin-4-ylmethyl)thiazole-5-carboxamide] yielded a melting point of 275 to 278 °C.

With `Cc1nc(-n2ccc(OCCC3CC3)cc2=O)sc1C(=O)NCc1cccnc1` [Example 1.5, 2-(4-(2-Cyclopropylethoxy)-2-oxopyridin-1(2H)-yl)-4-methyl-N-(pyridin-3-ylmethyl)thiazole-5-carboxamide], the melting point fell in the range of 170 to 172 °C.

The compound `Cc1cc(-n2ccc(OCc3ccccc3)cc2=O)sc1C(=O)NCc1ccc(F)cc1` [Example 3.21, 5-(4-(Benzyloxy)-2-oxopyridin-1(2H)-yl)-N-(4-fluorobenzyl)-3-methylthiophene-2-carboxamide] gave a melting point of 175 to 177 °C.
